# Test results as given in PMC4520450, “Procyanidins Negatively Affect the Activity of the Phosphatases of Regenerating Liver” (PLoS ONE, 2015).
# Columns and labels:
# [1] = test system: HEK293 cells (empty vector, PRL-1 and PRL-3 overexpressing); assay: Cytotoxicity by flow cytometry with propidium iodide; type: cell-based; conditions: 24 h
# Description: To study the effects of procyanidins on PRL-1 and PRL-3 in cells, the trimeric catechin (procyanidin C2, 9) was chosen as a representative example due to its strong inhibitor activity in vitro toward both PRL-s and its smaller size compared to the higher oligomers, which could influence cell permeability. HEK293 cells stably overexpressing PRL-1 and PRL-3 were chosen as model cell line. As a control cell line, HEK293 cells transfected with the empty vector were utilized (see the Experimental Procedures). To avoid false positive results due to cell death, first cell viability was studied in a concentration dependent manner by using flow cytometry. Therefore, cells were treated with different concentrations of compound 9 for 24 h, harvested, and then the ratio of living to dead cells was determined using propidium iodide (Fig 5).
# Fig 5 Cytotoxicity of procyanidin C2 (9) in HEK293 cells. Cells were treated with 50, 150 or 300 μM of 9 in the growth medium for 24 h. Cells were harvested, resuspended in PBS buffer and incubated with propidium iodide (1 mg/mL) for 5 min on ice. 10,000 events were set for the number of living cells. The number of living cells was divided by the number of total cells counted and given as percentage of cell survival. Data represent means ± standard errors of the mean (n = 3).
# Fig 7 A) Cytotoxicity of procyanidin B3 (8) in HEK293 cells. Cells were treated with 50, 75 or 100 μM of 8 in the growth medium for 24 h. Cells were harvested, resuspended in PBS buffer and incubated with propidium iodide (1 mg/mL) for 5 min on ice. 10,000 events were set for the number of living cells. The number of living cells was divided by the number of total cells counted and given as percentage of cell survival. Data represent means ± standard errors of the mean (n = 3). B) Wound healing abilities of PRL-1 or PRL-3 overexpressing or empty vector control HEK293 cell lines were analyzed in the presence of compound 8 or medium only. Cells were seeded at a concentration of 800,000 cells per insert and procyanidin B3 (8) was added at a concentration of 50 and 75 μM. Speed of migration is shown for combined data from different replicates, as mean ± SD (n = 40–77). Two-sided t-tests with Welsh correction were performed for p < 0.05. ns = not significant;***: < 0.001; **: < 0.01; *: < 0.05.
# Flow cytometry was used to determine the ratio of living to dead cells compared to the control. HEK293 empty vector and PRL-3 overexpressing cells were seeded in a transparent 6-well plate with 400,000 cells/well in DMEM medium without Phenol red, supplemented with 10% FBS, 1% glutamine and 0.2% hygromycin and blasticidin. For induction of PRL-3 expression, 0.1% tetracycline was added. After 24 hours incubation at 37°C, procyanidins 8 or 9 dissolved in growth medium and growth medium as a control were added to the respective wells in the indicated final concentrations and incubated for another 24 hours. Then, the medium was removed and collected in Eppendorf tubes, centrifuged for 5 min at 500 rpm and the supernatant removed. Then 1 mL of PBS (10%) was added to each well and the cells detached with a cell scraper. […] After thorough mixing the cell suspension was injected into a LSR- Fortessa Bench Top Analyzer (Beckton Dickinson) and the number of living and dead cells counted. […] The number of living cells was divided by the number of total cells counted and given as percentage of cell survival.
# PTP1B = target: T1, PTP1B (Homo sapiens, UniProt P18031); assay: DiFMUP assay for PTP1B, TCPTP, VHR; type: biochemical; conditions: 12.5 μM, 30 min incubation, 20 μM DiFMUP, 50 nM enzyme
# T1 construct: made in house
# T1 sequence (P18031 1-435): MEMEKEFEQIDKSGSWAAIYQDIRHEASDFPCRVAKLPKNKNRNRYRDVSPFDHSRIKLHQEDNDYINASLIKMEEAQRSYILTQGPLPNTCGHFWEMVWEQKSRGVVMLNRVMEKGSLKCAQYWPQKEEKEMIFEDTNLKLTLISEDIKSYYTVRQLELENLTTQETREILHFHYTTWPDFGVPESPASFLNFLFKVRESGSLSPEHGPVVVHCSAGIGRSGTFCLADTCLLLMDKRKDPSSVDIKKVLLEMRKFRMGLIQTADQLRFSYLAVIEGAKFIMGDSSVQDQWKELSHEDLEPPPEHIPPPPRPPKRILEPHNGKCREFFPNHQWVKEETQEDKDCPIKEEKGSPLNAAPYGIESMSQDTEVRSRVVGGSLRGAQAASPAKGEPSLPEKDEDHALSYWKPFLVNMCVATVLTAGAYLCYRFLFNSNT
# Protocol: As an extension of our studies we included PTP1B, VHR and TCPTB as examples for phosphotyrosine specific phosphatases in our activity studies, because tea extracts were reported to inhibit PTP1B [43]. For comparison with PRL-3, these proteins were used in the same concentration (50 nM) as PRL-3 and DiFMUP was also used as a substrate in 20 μM concentration. The enzymes were incubated with three different concentrations of procyanidin C2 (9) for 30 min before the measurement.
# Fig 3 Effect of procyanidin C2 (9) on the phosphatase activity of VHR, PTP1B and TCPTP using DiFMUP as a substrate. Proteins were incubated with compound 9 for 30 min., phosphatase activity measurements were performed using 20 μM DiFMUP. Phosphatase activity in the absence of compound 9 was set as 100%. Data represent means ± standard errors of the mean (n = 3).
# DiFMUP assay for PTP1B, TCPTP, VHR: In a final reaction volume of 100 μL the PTPs (50 nM final concentration) were incubated with […] of procyanidin C2 (9) for 30 minutes at 25°C. The buffer conditions were pH 7.2, 4-/2-Hydroxyethyl)-1-piperazineethanesulfonic acid (HEPES) 25 mM, EDTA 2.5 mM, DTT 2.0 mM, NaCl 124.4 mM. After the incubation time 20 μL DiFMUP was added to reach a final concentration of 20 μM. On a Tecan safire2 (Tecan, Salzburg, Austria) plate reader dephosphorylation of the substrate to its fluorescent product was monitored by following the emission at […] for 10 minutes. All measurements were done in triplicates, and the experiments were repeated at least three times. The slopes of the initial phases were obtained by linear regression of the data points. The normalized reaction rates were plotted versus the log of the inhibitor concentrations and the IC50 values were obtained by fitting the curves using the one site competition model of GraphPad Prism (GraphPad Software, Version 5). Due to the high water solubility of 9 DMSO was not required and measurements were done in assay buffer only.
# PRL-3 = target: T2, PRL-3 (Homo sapiens, UniProt O75365); assay: DiFMUP phosphatase activity assay for PRLs; type: biochemical; conditions: 20 μM DiFMUP
# T2 construct: His-TEV (cleaved yes); made in house
# T2 sequence (O75365 whole entry): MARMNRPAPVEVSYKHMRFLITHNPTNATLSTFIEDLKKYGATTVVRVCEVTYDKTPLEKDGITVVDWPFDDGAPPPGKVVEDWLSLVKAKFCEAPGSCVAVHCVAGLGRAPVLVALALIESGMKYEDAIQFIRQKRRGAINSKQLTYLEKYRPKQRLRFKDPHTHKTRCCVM
SMILES,"cytotoxic effects ([1]; 50, 75 and 100 μM, all three cell lines)",concentration up to which not cytotoxic [1],PTP1B phosphatase activity compared to the control (PTP1B),"PRL-3 phosphatase activity compared to the control (PRL-3; 12.5 μM, 30 min incubation, 50 nM enzyme)",inhibition of PRL-3 activity (PRL-3; 25 μM and 50 μM),concentration up to which not cytotoxic ([1]; human)
"Oc1cc(O)c2c(c1)O[C@H](c1ccc(O)c(O)c1)[C@@H](O)[C@@H]2c1c(O)cc(O)c2c1O[C@H](c1ccc(O)c(O)c1)[C@@H](O)C2 [Procyanidin B3 (8), Procyanidin B3]",did not show any cytotoxic effects,at least 100 μM,–,–,–,–
"Oc1cc(O)c2c(c1)O[C@H](c1ccc(O)c(O)c1)[C@@H](O)[C@@H]2c1c(O)cc(O)c2c1O[C@H](c1ccc(O)c(O)c1)[C@@H](O)[C@@H]2c1c(O)cc(O)c2c1O[C@H](c1ccc(O)c(O)c1)[C@@H](O)C2 [Procyanidin C2 (9), Procyanidin C2]",–,–,75–85%,75–85%,inhibited in a concentration dependent manner,up to 50 μM
